One test has as its system lymphoma (Daudi) cells. The format is cell-based. Here is the method:
The cytotoxicity of Molecule 001 in combination with lenalidomide was also tested in vitro, in lymphoma (Daudi) cells. […] Following this, Molecule 001 was added and viability was measured after an additional 3 days, using the Promega® Cell Titer-Gb® assay (FIG. 19C).

The test system of test [1] is Burkitt's lymphoma (ST-486) cells. Type of test: cell-based. As to conditions: 72 hours. Here is the method:
The cytotoxicity of Molecule 001 in combination with lenalidomide was also tested in Burkitt's lymphoma (ST-486) cells. The cells were incubated with Molecule 001 only, lenalidomide only, or a combination of Molecule 001 and lenalidomide. Cell viability was measured 72 hours after treatment using the Promega® Cell TiterGlo® assay (FIG. 19E).

For a further test, the system named is SU-DHL-4. Type of test: cell-based.
For a further test, the system named is Daudi. The format is cell-based.
Another test has as its system HBL-1. Type of test: cell-based.
Another test addresses CD20 (Homo sapiens, UniProt P11836). As to conditions: at 37° C.; cited from earlier work.
The subject of the next test is Raji. Type of test: cell-based.

Sequence of CD20 (P11836 whole entry): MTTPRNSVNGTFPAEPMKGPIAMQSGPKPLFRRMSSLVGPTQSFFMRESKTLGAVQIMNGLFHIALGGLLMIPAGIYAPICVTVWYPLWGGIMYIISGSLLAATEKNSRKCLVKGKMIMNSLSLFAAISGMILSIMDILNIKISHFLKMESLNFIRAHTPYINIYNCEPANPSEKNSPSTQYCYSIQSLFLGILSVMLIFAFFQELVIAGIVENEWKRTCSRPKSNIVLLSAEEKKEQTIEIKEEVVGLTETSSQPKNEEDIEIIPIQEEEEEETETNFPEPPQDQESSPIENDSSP

Regarding `Nc1cccc2c1CN(C1CCC(=O)NC1=O)C2=O` (stereo not shown) [lenalidomide], the “toxicity of Molecule 001 on cells pre-treated with lenalidomide (isobologram)” value with lymphoma (Daudi) cells (Daudi cells pre-treated with lenalidomide for 24 hours, then Molecule 001, viability after additional 3 days) is “synergistic toxicity”. Also, the “potency of the combination of Molecule 001 and LEN against lymphoma cells” value in the test on lymphoma (Daudi) cells (versus either agent alone) is “significantly greater potency against lymphoma cells than either agent alone”. Further, the “effect of lenalidomide on the activity of Molecule 001” value in test [1] was “no effect on the activity of Molecule 001”. In addition, the “effect of lenalidomide on cell viability” value in test [1] (concentrations used in this assay) is recorded as “little effect on cell viability”.
With `Cn1c(CCCC(=O)O)nc2cc(N(CCCl)CCCl)ccc21` [Bendamustine], the “In vitro responses to Molecule 001 in combination with chemotherapy” value (from here on “In vitro responses”) with SU-DHL-4, in the test on Daudi and in the test with HBL-1 was “Synergistic” in each case.
For the compound rituximab, the “time to maximal cellular internalization” value at CD20 was 16 to 18 h.
For the compound `Nc1ccn([C@@H]2O[C@H](CO)[C@@H](O)C2(F)F)c(=O)n1` [Gemcitabine], the “In vitro responses” value in the test with Raji is “Synergistic”.
Consider `N.N.[Cl][Pt][Cl]` [Cisplatin], for which the “In vitro responses” value with Raji is “Synergistic”; in the test on SU-DHL-4, “Mixed”; with Daudi, “Mixed”.
As for `CC[C@]1(O)C[C@H]2CN(CCc3c([nH]c4ccccc34)[C@@](C(=O)OC)(c3cc4c(cc3OC)N(C=O)[C@H]3[C@@](O)(C(=O)OC)[C@H](OC(C)=O)[C@]5(CC)C=CCN6CC[C@]43[C@@H]65)C2)C1` [Vincristine], in the test with Raji, the “In vitro responses” value was “Synergistic”.
For the compound `COc1cccc2c1C(=O)c1c(O)c3c(c(O)c1C2=O)C[C@@](O)(C(=O)CO)C[C@@H]3O[C@H]1C[C@H](N)[C@H](O)[C@H](C)O1` [Doxorubicin], the figures for the “In vitro responses” value in the test with Raji, in the test with Daudi and in the test on HBL-1 were “Synergistic”, “Mixed” and “Synergistic”, respectively.

(Values after US20210155671A1 (priority 2019, published 2021).)
